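A five-concentration, 48-hour dose response in 96-well plates underlies each endpoint, interpolated linearly between surrounding concentrations. At the GI50, growth is halved.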 Activity calls are given as the source filed them. Cut-off read from the data, not from the text of the source: active = GI50 up to about 1.1 µM and inactive = higher.
How the values were obtained:
Assay in all cases: DTP human tumour cell line panel, 48 h
A498 = tested on: A498
NCI-H23 = tested on: NCI-H23
SK-MEL-2 = tested on: SK-MEL-2
U-251 = tested on: U-251
HCC 2998 = tested on: HCC 2998
A549 = tested on: A549
T47D = tested on: T47D
SN12C = tested on: SN12C
SK-MEL-5 = tested on: SK-MEL-5
SK-OV-3 = tested on: SK-OV-3
Hs-578T = tested on: Hs-578T
SW-620 = tested on: SW-620
OVCAR-8 = tested on: OVCAR-8
UO-31 = tested on: UO-31
SK-MEL-28 = tested on: SK-MEL-28
PC-3 = tested on: PC-3
SF-268 = tested on: SF-268
MOLT-4 = tested on: MOLT-4
IGROV-1 = tested on: IGROV-1
HOP-92 = tested on: HOP-92
HCT-15 = tested on: HCT-15
UACC-257 = tested on: UACC-257
COLO 205 = tested on: COLO 205
OVCAR-3 = tested on: OVCAR-3
SNB-19 = tested on: SNB-19
HT-29 = tested on: HT-29
OVCAR-5 = tested on: OVCAR-5
Malme-3M = tested on: Malme-3M
MDA-MB-231 = tested on: MDA-MB-231
TK-10 = tested on: TK-10
KM12 = tested on: KM12
MDA-N = tested on: MDA-N
SF-539 = tested on: SF-539
DU-145 = tested on: DU-145
HOP-62 = tested on: HOP-62
LOX IMVI = tested on: LOX IMVI
NCI/ADR-RES = tested on: NCI/ADR-RES
CCRF-CEM = tested on: CCRF-CEM
M14 = tested on: M14
SNB-75 = tested on: SNB-75
NCI-H522 = tested on: NCI-H522
BT-549 = tested on: BT-549
UACC-62 = tested on: UACC-62
EKVX = tested on: EKVX
OVCAR-4 = tested on: OVCAR-4
ACHN = tested on: ACHN
HCT-116 = tested on: HCT-116
RPMI-8226 = tested on: RPMI-8226
CAKI-1 = tested on: CAKI-1
786-0 = tested on: 786-0
SF-295 = tested on: SF-295
MDA-MB-435 = tested on: MDA-MB-435
NCI-H226 = tested on: NCI-H226
RXF 393 = tested on: RXF 393
MCF7 = tested on: MCF7
NCI-H460 = tested on: NCI-H460
HL-60 = tested on: HL-60
K562 = tested on: K562

`CCSc1n/c(=C\c2ccco2)c2nnnn12` was tested, and the GI50 (A498) was > 100 µM (inactive), the GI50 (NCI-H23) was > 100 µM (inactive) and the GI50 (SK-MEL-2) was > 100 µM (inactive). For the same compound, the GI50 (U-251) was > 100 µM (inactive), the GI50 (HCC 2998) was > 100 µM (inactive) and the GI50 (A549) was > 100 µM (inactive). The GI50 (T47D) was > 100 µM (inactive), the GI50 (SN12C) was > 100 µM (inactive) and the GI50 (SK-MEL-5) was > 100 µM (inactive). For the same compound, the GI50 (SK-OV-3) was > 100 µM (inactive), the GI50 (Hs-578T) was > 100 µM (inactive) and the GI50 (SW-620) was > 100 µM (inactive). The GI50 (OVCAR-8) was > 100 µM (inactive), the GI50 (UO-31) was > 100 µM (inactive) and the GI50 (SK-MEL-28) was > 100 µM (inactive). For the same compound, the GI50 (PC-3) was > 100 µM (inactive), the GI50 (SF-268) was > 100 µM (inactive) and the GI50 (MOLT-4) was > 100 µM (inactive). The GI50 (IGROV-1) was > 100 µM (inactive), the GI50 (HOP-92) was > 100 µM (inactive) and the GI50 (HCT-15) was over 100 µM. The GI50 (UACC-257) was > 100 µM (inactive), the GI50 (COLO 205) was > 100 µM (inactive) and the GI50 (OVCAR-3) was > 100 µM (inactive). For the same compound, the GI50 (SNB-19) was > 100 µM (inactive), the GI50 (HT-29) was > 100 µM (inactive) and the GI50 (OVCAR-5) was > 100 µM (inactive). The GI50 (Malme-3M) was > 100 µM (inactive), the GI50 (MDA-MB-231) was > 100 µM (inactive) and the GI50 (TK-10) was > 100 µM (inactive). For the same compound, the GI50 (KM12) was > 100 µM (inactive), the GI50 (MDA-N) was > 100 µM (inactive) and the GI50 (SF-539) was > 100 µM (inactive). For the same compound, the GI50 (DU-145) was > 100 µM (inactive), the GI50 (HOP-62) was > 100 µM (inactive) and the GI50 (LOX IMVI) was > 100 µM (inactive). For the same compound, the GI50 (NCI/ADR-RES) was > 100 µM (inactive), the GI50 (CCRF-CEM) was > 100 µM (inactive) and the GI50 (M14) was > 100 µM (inactive). The GI50 (SNB-75) was > 100 µM (inactive), the GI50 (NCI-H522) was > 100 µM (inactive) and the GI50 (BT-549) was > 100 µM (inactive). For the same compound, the GI50 (UACC-62) was > 100 µM (inactive), the GI50 (EKVX) was > 100 µM (inactive) and the GI50 (OVCAR-4) was > 100 µM (inactive). The GI50 (ACHN) was > 100 µM (inactive), the GI50 (HCT-116) was > 100 µM (inactive) and the GI50 (RPMI-8226) was > 100 µM (inactive). For the same compound, the GI50 (CAKI-1) was > 100 µM (inactive), the GI50 (786-0) was > 100 µM (inactive) and the GI50 (SF-295) was > 100 µM (inactive). For the same compound, the GI50 (MDA-MB-435) was > 100 µM (inactive), the GI50 (NCI-H226) was > 100 µM (inactive) and the GI50 (RXF 393) was > 100 µM (inactive). The GI50 (MCF7) was > 100 µM (inactive).

For `CC(=O)NC1C(OCc2ccccc2)OC(CO)C(O)C1OCC(=O)N1CCCC1C(=O)N[C@@H](CCC(=O)NCCNCCNc1c2ccccc2nc2cccc([N+](=O)[O-])c12)C(N)=O` (some centres undefined), the GI50 (A498) was 1.04 µM (active), the GI50 (NCI-H23) was 2.51 µM (inactive) and the GI50 (NCI-H460) was 0.849 µM (active). For the same compound, the GI50 (SK-MEL-2) was 3.67 µM (inactive), the GI50 (U-251) was 2.44 µM (inactive) and the GI50 (HCC 2998) was 2.67 µM (inactive). For the same compound, the GI50 (A549) was 1.52 µM (inactive), the GI50 (T47D) was 5.78 µM (inactive) and the GI50 (SN12C) was 1.39 µM (inactive). The GI50 (SK-MEL-5) was 1.48 µM (inactive), the GI50 (SK-OV-3) was 10.4 µM (inactive) and the GI50 (Hs-578T) was 3.89 µM (inactive). For the same compound, the GI50 (SW-620) was 1.31 µM (inactive), the GI50 (OVCAR-8) was 2.19 µM (inactive) and the GI50 (UO-31) was 3.75 µM (inactive). For the same compound, the GI50 (SK-MEL-28) was 6.68 µM (inactive), the GI50 (PC-3) was 2.94 µM (inactive) and the GI50 (SF-268) was 2.41 µM (inactive). The GI50 (MOLT-4) was 1.33 µM (inactive), the GI50 (IGROV-1) was 2.56 µM (inactive) and the GI50 (HOP-92) was 1.37 µM (inactive). For the same compound, the GI50 (HCT-15) was 2.11 µM, the GI50 (HL-60) was 3.78 µM (inactive) and the GI50 (UACC-257) was 6.28 µM (inactive). The GI50 (COLO 205) was 1.88 µM (inactive), the GI50 (OVCAR-3) was 5.65 µM (inactive) and the GI50 (SNB-19) was 5.5 µM (inactive). The GI50 (HT-29) was 1.46 µM (inactive), the GI50 (OVCAR-5) was 6.81 µM (inactive) and the GI50 (Malme-3M) was 2.57 µM (inactive). For the same compound, the GI50 (MDA-MB-231) was 2.5 µM (inactive), the GI50 (TK-10) was 4.27 µM (inactive) and the GI50 (KM12) was 3.46 µM (inactive). The GI50 (MDA-N) was 2.88 µM (inactive), the GI50 (SF-539) was 3.27 µM (inactive) and the GI50 (DU-145) was 0.968 µM (active). For the same compound, the GI50 (HOP-62) was 2.54 µM (inactive), the GI50 (LOX IMVI) was 4.55 µM (inactive) and the GI50 (K562) was 0.655 µM (active). The GI50 (NCI/ADR-RES) was 7.45 µM (inactive), the GI50 (CCRF-CEM) was 1.69 µM (inactive) and the GI50 (M14) was 2.92 µM (inactive). The GI50 (SNB-75) was 6.64 µM (inactive), the GI50 (NCI-H522) was 1.45 µM (inactive) and the GI50 (BT-549) was 4.82 µM (inactive). For the same compound, the GI50 (UACC-62) was 5.24 µM (inactive), the GI50 (EKVX) was 7.57 µM (inactive) and the GI50 (OVCAR-4) was 3.91 µM (inactive). For the same compound, the GI50 (ACHN) was 2.11 µM (inactive), the GI50 (HCT-116) was 0.979 µM (active) and the GI50 (RPMI-8226) was 0.37 µM (active). For the same compound, the GI50 (CAKI-1) was 1.94 µM (inactive), the GI50 (786-0) was 2.14 µM (inactive) and the GI50 (SF-295) was 5.33 µM (inactive). For the same compound, the GI50 (MDA-MB-435) was 2.65 µM (inactive), the GI50 (NCI-H226) was 5.6 µM (inactive) and the GI50 (RXF 393) was 2.17 µM (inactive). For the same compound, the GI50 (MCF7) was 0.724 µM (active).

With `COP(C)(=O)C(Cc1c[nH]c2ccccc12)NC(=O)OCc1ccccc1` (centres undefined) the GI50 (A498) was > 100 µM (inactive), the GI50 (NCI-H23) was > 100 µM (inactive) and the GI50 (NCI-H460) was > 100 µM (inactive). The GI50 (SK-MEL-2) was > 100 µM (inactive), the GI50 (U-251) was > 100 µM (inactive) and the GI50 (HCC 2998) was > 100 µM (inactive). For the same compound, the GI50 (A549) was > 100 µM (inactive), the GI50 (T47D) was > 100 µM (inactive) and the GI50 (SN12C) was > 100 µM (inactive). The GI50 (SK-MEL-5) was > 100 µM (inactive), the GI50 (SK-OV-3) was > 100 µM (inactive) and the GI50 (Hs-578T) was > 100 µM (inactive). For the same compound, the GI50 (SW-620) was > 100 µM (inactive), the GI50 (OVCAR-8) was > 100 µM (inactive) and the GI50 (UO-31) was > 100 µM (inactive). The GI50 (SK-MEL-28) was > 100 µM (inactive), the GI50 (PC-3) was > 100 µM (inactive) and the GI50 (SF-268) was > 100 µM (inactive). For the same compound, the GI50 (MOLT-4) was > 100 µM (inactive), the GI50 (IGROV-1) was > 100 µM (inactive) and the GI50 (HOP-92) was > 100 µM (inactive). For the same compound, the GI50 (HCT-15) was over 100 µM, the GI50 (HL-60) was > 100 µM (inactive) and the GI50 (UACC-257) was > 100 µM (inactive). For the same compound, the GI50 (COLO 205) was > 100 µM (inactive), the GI50 (OVCAR-3) was > 100 µM (inactive) and the GI50 (SNB-19) was > 100 µM (inactive). The GI50 (HT-29) was > 100 µM (inactive), the GI50 (OVCAR-5) was > 100 µM (inactive) and the GI50 (Malme-3M) was > 100 µM (inactive). The GI50 (MDA-MB-231) was > 100 µM (inactive), the GI50 (TK-10) was > 100 µM (inactive) and the GI50 (KM12) was > 100 µM (inactive). The GI50 (MDA-N) was > 100 µM (inactive), the GI50 (SF-539) was > 100 µM (inactive) and the GI50 (DU-145) was > 100 µM (inactive). For the same compound, the GI50 (HOP-62) was > 100 µM (inactive), the GI50 (LOX IMVI) was > 100 µM (inactive) and the GI50 (K562) was > 100 µM (inactive). For the same compound, the GI50 (NCI/ADR-RES) was > 100 µM (inactive), the GI50 (CCRF-CEM) was > 100 µM (inactive) and the GI50 (M14) was > 100 µM (inactive). The GI50 (BT-549) was > 100 µM (inactive), the GI50 (UACC-62) was > 100 µM (inactive) and the GI50 (EKVX) was > 100 µM (inactive). The GI50 (OVCAR-4) was > 100 µM (inactive), the GI50 (ACHN) was > 100 µM (inactive) and the GI50 (HCT-116) was > 100 µM (inactive). For the same compound, the GI50 (RPMI-8226) was > 100 µM (inactive), the GI50 (CAKI-1) was > 100 µM (inactive) and the GI50 (786-0) was > 100 µM (inactive). For the same compound, the GI50 (SF-295) was > 100 µM (inactive), the GI50 (MDA-MB-435) was > 100 µM (inactive) and the GI50 (NCI-H226) was > 100 µM (inactive). For the same compound, the GI50 (RXF 393) was > 100 µM (inactive) and the GI50 (MCF7) was > 100 µM (inactive).

Source: ChEMBL document CHEMBL1201862, “PubChem BioAssay data set” (2004)
